This note sets out measurements from patent publication US11241455B2, “Methods of treating disease by metabolic control of T-cell differentiation” (The J. David Gladstone Institutes, a testamentary trust …, priority 2016, dated 2022).

The test system of test [1] is differentiating iTreg cells. In words: Intracellular metabolite profiling by LC/MS in differentiating iTreg cells. Format: cell-based, mouse. The note with it: day 2.5, 0.5 mM AOA. How it is done: CD4 naïve T cells, differentiating TH17 cells (day 2.5), and differentiating iTreg cells (day 2.5) were obtained as described above. A solution of 80/20 methanol (MeOH)/H2O was used to extract intracellular metabolites. The extracted samples were analyzed with liquid chromatography (LC)/mass spectrometry (MS) metabolomics. 200 ng/mL of extraction standard (L-Glutamic acid-^13C5-^15N-d5) was added into samples, and the peak value for each metabolite was normalized to extraction standard. The data was transformed into Log 2 and clustered. Cell extracts obtained as described above were analyzed for relative abundance of ^13C and ^15N metabolites by liquid chromatography-triple quadrupole mass spectrometry (LC-MS) using scheduled selective reaction monitoring (SRM) for each metabolite of interest, with the detector set to negative mode. Quantitation of intracellular 2-hydroxyglutarate (2HG) was conducted as described previously (Kernesky et al., Blood 2015, 125(2) 296-303).

The subject of test [2] is EAE induced in C57BL/6 mice. In words: Mouse experimental autoimmune encephalitis (EAE) model. Format: in vivo. How it is done: EAE was induced by immunizing mice (12 weeks old, 11-12 mice/group) twice with 300 μg of MOG35-55 peptide (amino acids 35-55; MEVGWYRSPFSROVHLYRNGK (SEQ ID NO: 2)) emulsified in complete Freund's adjuvant, followed by pertussis toxin injection and analyzed. The disease scores were assigned on a scale of 0-5 as follows: 0, none; 1, limp tail or waddling gait with tail tonicity; 2, wobbly gait; 3, hind limb paralysis; 4, hind limb and forelimb paralysis; 5, death. When the disease phenotype was very obvious (average score>1), PBS or (aminooxy)-acetic acid (AOA) (750 μg/mice) was intraperitoneal (i.p.) injected every day. After 8 days of administration of AOA or PBS, the mice were anesthetized, and cells infiltrated into brain and spinal cord were collected for analysis. When indicated, the statistical significance was determined by Student's t test (*, p<0.05; **, p<0.01; ***, p<0.001). All animal work was approved by the Institutional Animal Care and Use Committee (IACUC).
The in vitro findings that AOA regulates the TH17/iTreg balance prompted an investigation into the effects of AOA in vivo in the context of a pathologic TH17-dependent disease state. TH17 cells are the major pathogenic cell population in experimental autoimmune encephalomyelitis (EAE), a mouse model of multiple sclerosis, but FOXP3+regulatory T cells suppress TH17 cell-mediated inflammatory diseases, such as EAE. In the in vitro studies, AOA skewed TH17 differentiation towards FOXP3+ iTreg cells and, therefore, offers a potential to treat TH17-mediated autoimmune diseases. To test this possibility, EAE was induced in C57BL/6 mice by immunizing with myelin oligodendrocyte glycoprotein peptide (MOG35-55) in complete Freund's adjuvant (CFA) as described. AOA or control vehicle was injected daily intraperitoneally after a majority of the mice began to show obvious neurological signs, including tail paralysis that progressed to hind and front limb paralysis (disease score>1). […] The ratio of FOXP3+ cells to IL17+ cells is much higher in AOA-treated mice than in control mice (FIG. 4c).

The subject of test [3] is differentiating iTreg cells. In words: 15N-α-glutamine flux analysis (transamination) in differentiating iTreg cells. The test is classed as cell-based, mouse. How it is done:
CD4 naïve T cells, differentiating TH17 or iTreg cells (68 hours) were incubated with fresh media prior to labeling. The cells were then cultured for 4 hours at 37° C. with medium where the glutamine was replaced with the corresponding stable isotope label: 2 mM U-^13C glutamine or 2 mM ^15N-α-glutamine for 4 hours at 37° C. The cells were quickly collected and quickly washed with phosphate buffer saline (PBS), pelleted, and snap frozen in liquid nitrogen. The frozen samples were kept in −80° C. until extraction. Cell extracts were prepared by first adding 80/20 MeOH/H2O at −60° C. to the frozen pellets and collecting the supernatant after centrifugation at 4° C. The extracted samples were analyzed by high-resolution liquid-chromatography-mass spectrometry. Unlabeled glutamine-fed cells were used as background.
For amino acid profiling: The ultra-high pressure liquid chromatography (U-HPLC) system consisted of a Thermo Fisher Scientific (San Jose, USA) U-HPLC pumping system, coupled to an autosampler and degasser. Chromatographic separation of the intracellular metabolites was achieved by usage of a reversed phase Atlantis® T3 (3 μm, 2.1 mm ID×150 mm) column (Waters, Eschborn, Germany) and by implementation of a gradient elution program. […]

The mark [4] stands for this setting: brain and spinal cord infiltrated T cells after 8 days of AOA 750 μg/mice i.p. daily, p<0.01.

For `NOCC(=O)O` [AOA, (aminooxy)-acetic acid], in test [1], the “abundance of TCA cycle intermediates (α-KG, succinate, fumarate, malate, citrate)” value was “reduced partially”; the level of glutamate result is given as “slightly higher”; the “reduction of steady-state levels of 2-HG” value is recorded as 50%. Besides, the “recovery from EAE diseases (disease scores, scale of 0-5)” value in test [2] (750 μg/mice i.p. every day, started when average score>1, versus PBS) is reported as “significant recovery from EAE diseases”. Further, the “ratio of FOXP3+ cells to IL17+ cells” value in test [2] (AOA-treated mice versus control mice, CNS infiltrated T cells) is given as “much higher”. For the same compound, in test [2] (setting [4]), the “percentage of FOXP3+ T cells in the central nervous system” value is listed as “increased” and the “percentage of TH17 cells in the central nervous system” value is recorded as “significantly reduced”. The “reduction of total intracellular 15N-α-aspartate” value in test [3] (differentiating iTreg cells fed 2 mM 15N-α-glutamine for 4 hours) turned out to be 75%. Also, the “de novo synthesis for several amino acids (15N label incorporation)” value in test [3] (differentiating iTreg cells, 2 mM 15N-α-glutamine for 4 hours) is “significant decreases”.
